Test results: patent US6057314A, “Low molecular weight bicyclic thrombin inhibitors” (Biochem Pharma Inc., priority 1997, dated 2000)
Values joined by “and” are separate entries in the source; they are usually repeats but may differ in a detail not shown here. Equal values may be shown once. Read-outs that look alike come from different tables or passages of the source.

Key:
human thrombin [1] = target: T1, human thrombin (Homo sapiens, UniProt P00734); test: Inhibition of amidolytic activity of human thrombin (Ki, fluorogenic substrate Tos-Gly-Pro-Arg-AMC); type: biochemical
Procedure: In an assay to determine the inhibitory dissociation constant, Ki, for a given compound, a chromogenic or fluorogenic substrate of thrombin would be added to a solution containing a test compound and thrombin; the resulting catalytic activity of the enzyme would be spectrophotometrically determined. This type of assay is well known to those skilled in the art.
Determination of K1 Values for Heterocyclics
The steady-state velocity was then measured for a few minutes. The compounds of this invention were also pre-incubated with thrombin for 20 minutes at room temperature before adding the substrate.

carotid artery in rats = test: FeCl3 induced carotid arterial injury model (arterial thrombosis) in rats, time to occlusion; type: in vivo, rat (Sprague-Dawley); conditions: Table 2
Procedure: Arterial Thrombosis Model
FeCl3 Induced Carotid Arterial Injury Model
Animals were laid on a 37° C. heating pad. The carotid artery was exposed through a midline cervical incision. Careful blunt dissection was used to isolate the vessel from the carotid sheath. […] A temperature probe (Physitemp*MT23/3) was placed between one of the pieces of tubing and the artery. Injury was induced by topical application on the carotid artery above the temperature probe of a small disc (3 mm dia.) of Whatman* No. 1 filter paper previously dipped in a 35% solution of FeCl3 […]. The vessel temperature was monitored for 60 minutes after application of FeCl3 as an indication of blood flow.
The time between the FeCl3 application and the time at which the vessel temperature decreased abruptly (>2.4° C.) was recorded as the time to occlusion of the vessel. Inhibitor compounds were given as an iv bolus (mg/kg) followed immediately by an iv infusion (μg/kg/min. via femoral vein). The dose of inhibitor needed to double the time to occlusion in comparison to control animals in which injury was induced in the absence of inhibitor was determined.

human thrombin [2] = target: T1, human thrombin; test: dTT assay (fibrin clotting assay, human thrombin and bovine fibrinogen); type: biochemical; conditions: concentration required to double the clotting time
Source text: The clotting time was plotted against the inhibitor concentrations and the IC50 was estimated as the inhibitor concentration required to double the clotting time relative to the control.

human thrombin [3] = target: T1, human thrombin; test: Fibrin clot assay (human plasma, turbidity); type: biochemical; conditions: Table 1, 1 nM thrombin, at 30 minutes
Procedure: The fibrin clot assay was performed essentially as described by Krtenansky et al, FEBS, 1987, 211:10. A serial dilution of the inhibitor was prepared in 50 mM tri HCl buffer (pH 7.8 at 23° C.) containing 0.1 M NaCl and 0.1% (w/v) polyethylene glycol 8000. Human plasma (60 μL, collected in 3.8% sodium citrate, blood/anticoagulate 9:1) was added to microtiter wells (microtiter plate, Falcon) containing 100 μL of various inhibitor dilutions. The solution was mixed after which 50 μL of human thrombin (1 nM final conc.) was added and mixed for 15 seconds. The turbidity of the clot was immediately monitored by microplate autoreader (Dynateck MR 5000) at 405 nm and recorded every 3 min. The maximal turbidity in the absence of inhibitors was reached within 60 min. IC50 values were calculated at 30 minutes as the inhibitor concentration that gave half the optical density of the control.

[4] = test system: washed platelets from rats; test: Platelet secretion (14C-serotonin, 5-HT, release from washed rat platelets, thrombin stimulated); type: cell-based; conditions: Table 1, human thrombin 0.1 IU/mL, read-out: Antiplatelet activity, 5-HT Secretion (IC50)
Procedure: Platelet Aggregation and Secretion Rat blood was collected into ACD (6/1 v/v) by cardiac puncture. Suspensions of washed platelets were prepared as described by […] et al, (Br. J. Haematol. 1970, 19:7 and Proc. Soc. Exp. Biol. Med. 1971, 136:1021). […] Platelet counts were adjusted to 5000,000/ μL. To permit measurement of the extent of release of the contents of the dense granules, the platelets were labelled in the first washing solution with ^14 C-serotonin (5-HT) (1 μCi/10 mL of washing fluid) and release of ^14 C-serotonin was determined as described in Holmsen et al, (Enzymology, 1989, 169:206). […] (5 μM final conc.) was added to present the reuptake of released serotonin. Platelet aggregation was recorded at 37° C. in an aggregometer (BioData PAP-4) at a stirring speed of 1,100 rpm by measuring the variations of light transmission. […] IC50 values represent the concentration that was necessary to inhibit platelet aggregation or secretion to 50% of the control.

[5] = test system: washed platelets from rats; test: Platelet aggregation (washed rat platelets, thrombin stimulated); type: cell-based; conditions: Table 1, suspension of washed platelets from rats, human thrombin 0.1 IU/mL, read-out: Antiplatelet activity, Aggregation (IC50)
Procedure: Platelet Aggregation and Secretion Rat blood was collected into ACD (6/1 v/v) by cardiac puncture. Suspensions of washed platelets were prepared as described by […] et al, (Br. J. Haematol. 1970, 19:7 and Proc. Soc. Exp. Biol. Med. 1971, 136:1021). […] Platelet counts were adjusted to 5000,000/ μL. Platelet aggregation was recorded at 37° C. in an aggregometer (BioData PAP-4) at a stirring speed of 1,100 rpm by measuring the variations of light transmission. […] IC50 values represent the concentration that was necessary to inhibit platelet aggregation or secretion to 50% of the control.

[6] = ivb + inf 0.75-50 (iv bolus mg/kg, infusion μg/kg/min)
[7] = ivb + inf 0.5-30 (iv bolus mg/kg, infusion μg/kg/min)
[8] = Table 1, read-out: Ki (inhibitory dissociation constant for human thrombin)

SMILES | Ki (human thrombin [1]; Table 2, read-out: Ki) | Ki (human thrombin [1]; [8]) | M.O.T (min)+/-sem (carotid artery in rats; [6]) | other results
N=C(N)NCCCC(NC(=O)[C@@H]1CC[C@H]2CN(C(=O)c3ccccc3)CC(=O)N21)C(=O)c1nccs1 (stereo partly drawn) [Compound 0335, 2-Benzoyl-4-oxo-octahydro-pyrrolo[1,2-a]pyrazine-6-carboxylic acid[4-guanidino-1-(thiazole-2-carbonyl)-butyl]-amide] | 25 nM | – | 45.8 ± 14.2 min | IC50 (human thrombin [2]; Table 2, read-out: dTT): 138 nM; M.O.T (min)+/-sem (carotid artery in rats; [7]): 41.5 ± 7.27 min
COC(=O)CCC(=O)C(CCCNC(=N)N)NC(=O)[C@@H]1CSC2CC[C@@H](Cc3ccccc3)C(=O)N21 (stereo partly drawn) [Compound 0100, 6S-benzylhexahydro-5-oxo-5H-thiazolo[3,2-a]pyridine-3R-carboxamido(propylcarbmethoxyketoarginine)] | – | 19000 nM | – | IC50 (human thrombin [2]; Table 1, read-out: dTT IC50): 165000 nM
N=C(N)NCCCC(NC(=O)[C@@H]1CSC2CC[C@@H](Cc3ccccc3)C(=O)N21)C1(CCCCC(N)=O)SCCS1 (stereo partly drawn) [Compound 0050, 6S-benzylhexahydro-5-oxo-5H-thiazolo[3,2-a]pyridine-3R-carboxamido(carboxamidopentylcyclodithioketalarginine)] | – | 62000 nM | – | IC50 (human thrombin [3]): > 450000 nM
N=C(N)NCCCC(NC(=O)C1CSC2CCC(N3C(=O)c4ccccc4C3=O)C(=O)N21)C(=O)c1nccs1 (single isomer, unassigned) [Compound 0295a] | 1500 nM | – | 20 ± 1 min | –
N=C(N)NCCCC(NC(=O)[C@@H]1CS[C@@H]2CC[C@@H](Cc3ccccc3)C(=O)N21)C(=O)c1nccs1 (stereo partly drawn) [Compound 0245, 6-Benzyl-5-oxo-hexahydro-thiazolo[3,2-a]pyridine-3-carboxylic acid[4-guanidino-1-(thiazole-2-carbonyl)butyl]-amide] | 5 nM and 8 nM | – | 22.6 ± 2.6 min | M.O.T (min)+/-sem (carotid artery in rats; [7]): 27 ± 3 min
N=C(N)NCCCC(NC(=O)[C@@H]1CC[C@H]2CN(C(=O)CCc3ccccc3)CC(=O)N21)C(=O)c1nccs1 (stereo partly drawn) [Compound 0340, 4-Oxo-2-(3-phenyl-propionyl)-octahydro-pyrrolo[1,2-a]-pyrazine-6-carboxylic acid [4-guanidino-1-(thiazole-2-carbonyl)-butyl]-amide] | 0.6 nM | – | – | M.O.T (min)+/-sem (carotid artery in rats; ivb + inf 0.25-20 (iv bolus mg/kg, infusion μg/kg/min)): 36+/-9,6 min
CCCC(=O)C(CCCNC(=N)N)NC(=O)[C@@H]1CSC2CC[C@@H](Cc3ccccc3)C(=O)N21 (stereo partly drawn) [Compound 0005, 6S-benzylhexahydro-5-oxo-5H-thiazolo[3,2-a]pyridine-3R-carboxamido (propyl ketoarginine)] | – | 4000 nM | – | IC50 (human thrombin [3]): > 450000 nM; IC50 (human thrombin [2]; Table 1, read-out: dTT IC50): 47000 nM
N=C(N)NCCCC(NC(=O)[C@@H]1CSC2CC[C@@H](CC3CCCCC3)C(=O)N21)C(=O)CCC(=O)N[C@@H](Cc1ccccc1)C(=O)N[C@@H](CCCNC(=N)N)C(N)=O (stereo partly drawn) [Compound 0090, 6S-cyclohexylmethylhexahydro-5-oxo-5H-thiazolo[3,2-a]pyridine-3R-carboxamido((propylketo)Arg--Phe--Arg--NH2)] | – | 31 nM | – | IC50 (human thrombin [2]; Table 1, read-out: dTT IC50): 330 nM
N=C(N)NCCCC(NC(=O)[C@@H]1CSC[C@H]2CC[C@@H](Cc3ccccc3)C(=O)N21)C(=O)c1nccs1 (single isomer, unassigned) [Compound 0925a] | 7 nM | – | 20.3 ± 3.5 min | –
N=C(N)NCCCC(NC(=O)[C@@H]1CSC[C@H]2CC[C@@H](CCc3ccccc3)C(=O)N21)C(=O)c1nccs1 (single isomer, unassigned) [Compound 0940a] | 16 nM | – | 15.2 ± 0.82 min | –
N=C(N)NCCCC(NC(=O)C1CSC2CCC(NC(=O)CCc3ccccc3)C(=O)N21)C(=O)c1nccs1 (stereo not drawn) [Compound 0315b] | 10 nM | – | 30.33 ± 8.4 min | –
N=C(N)NCCCC(NC(=O)[C@@H]1CSCC2CCCC(=O)N21)C(=O)c1nccs1 (stereo partly drawn) [Compound 0915, 6-Oxo-octahydro-pyrido[2,1-c][1,4]thiazine-4-carboxylic acid[4-guanidino-1-(thiazole-2-carbonyl)-butyl]-amide] | 1600 nM | – | 15+/-1,3 min | –

Now from value to compound, other results behind:

Ki (human thrombin [1]; Table 2, read-out: Ki) | Ki (human thrombin [1]; [8]) | SMILES | M.O.T (min)+/-sem (carotid artery in rats; [6]) | other results
18 nM | – | C[C@]12CC[C@@H](Cc3ccc4nc(C(F)(F)F)ccc4c3)C(=O)N1[C@H](C(=O)NC(CCCNC(=N)N)C(=O)c1nc3ccccc3s1)CS2 (stereo partly drawn) [Compound 0240, 8a-Methyl-5-oxo-6-(2-trifluoromethyl-quinolin-6-ylmethyl)-hexahydro-thiazolo[3,2-a]pyridine-3-carboxylic acid[1-(benzothiazole-2-carbonyl)-4-guanidino-butyl]-amide] | 17 ± 2.6 min | –
10 nM | – | N=C(N)NCCCC(NC(=O)[C@@H]1CSCC2CC[C@@H](Cc3ccccc3)C(=O)N21)C(=O)c1nccs1 (stereo partly drawn) [0925a + b] | 19.6 ± 0.2 min | –
– | 48 nM | N=C(N)NCCCC(NC(=O)[C@@H]1CSC2CC[C@@H](CC3CCCCC3)C(=O)N21)C(=O)C[n+]1ccc2ccccc2c1 (stereo partly drawn) [Compound 0080, 6S-cyclohexylmethylhexahydro-5-oxo-5H-thiazolo[3,2-a]pyridine-3R-carboxamido(iso-quinoliniummethylketoarginine)] | – | IC50 [4]: 380 nM; IC50 (human thrombin [2]; Table 1, read-out: dTT IC50): 375 nM; IC50 [5]: 400 nM
2 nM | – | Cc1cnc(C(=O)C(CCCNC(=N)N)NC(=O)[C@@H]2CC[C@H]3CN(C(=O)CCc4ccccc4)CC(=O)N32)s1 (stereo partly drawn) [Compound 0345, 4-Oxo-2-(3-phenyl-propionyl)-octahydro-pyrrolo[1,2-a]pyrazine-6-carboxylic acid[4-guanidino-1-(5-methyl-thiazole-2-carbonyl)-butyl]-amide] | 50 ± 5.86 min | –
– | 74000 nM | N=C(N)NCCC[C@H](NC(=O)[C@@H]1CSC2CC[C@@H](CC3CCCCC3)C(=O)N21)C(=O)N1CCC(C(N)=O)CC1 (stereo partly drawn) [Compound 0045, 6S-cyclohexylmethylhexahydro-5-oxo-5H-thiazolo[3,2-a]pyridine-3R-carboxamido((S)Argisonipecotamide)] | – | IC50 (human thrombin [3]): > 450000 nM; IC50 (human thrombin [2]; Table 1, read-out: dTT IC50): 415000 nM
4 nM | – | N=C(N)NCCCC(NC(=O)[C@@H]1CS[C@@H]2CC[C@@H](CCCC3CCCCC3)C(=O)N21)C(=O)c1nccs1 (single isomer, unassigned) [Compound 0265a] | 21.5 ± 10 min | –
18 nM | – | N=C(N)NCCCC(NC(=O)[C@@H]1CS[C@@H]2CC[C@@H](CCCC3CCCCC3)C(=O)N21)C(=O)c1nccs1 (single isomer, unassigned) [Compound 0265b] | 14.83 ± 2.3 min | –
